The values that follow come from paper PMC5007978, “A chemical with proven clinical safety rescues Down-syndrome-related phenotypes in through DYRK1A inhibition” (Disease Models & Mechanisms, 2016).

Each structure is given as a SMILES string.

Data set [1] deals with calcineurin-NFAT signaling. The data set is described as follows: Flag-NFATc1 localization by immunofluorescence in 293T cells. It is filed as cell-based. Particulars: 10 μM, 293T cells with overexpressed DYRK1A, ionomycin 5 μM. An excerpt: Flag-NFATc1 remained predominantly in the cytosol when expressed in 293T cells (Mock, Fig. 5A). Upon the addition of the calcium ionophore ionomycin (IM), Flag-NFATc1 was translocated into the nucleus (Fig. 5A, IM) as a result of NFATc1 dephosphorylation by activated calcineurin. Overexpression of DYRK1A relocalized Flag-NFATc1 into the cytoplasm, even in the presence of ionomycin owing to the opposing action of DYRK1A on NFATc1 phosphorylation, which is consistent with its negative regulatory role in the calcineurin-NFAT pathway (Fig. 5A, DYRK1A+IM).
Fig. 5. […] Firefly luciferase activities were measured using One-Glo reagents. Luciferase activity in the sample with reporter plasmid alone was set to 1, and the relative luciferase activities were calculated. Means±s.d. were determined from two independent experiments.
293T cells were seeded into 8-well chambered coverslips (Ibidi) and transfected with a plasmid expressing Flag-NFATc1. […] Cells were fixed with 4% paraformaldehyde in PBS for 10 min at room temperature, followed by permeabilization with 0.1% Triton X-100, and then subjected to immunofluorescence staining with anti-Flag (1:500) antibody for 2 h. Cells were then washed with cold PBS three times for 3 min each, incubated with Alexa-Fluor-488-conjugated anti-rabbit IgG (1:800) (Invitrogen) at room temperature for 1 h and then examined under a fluorescence microscope.

Data set [2] deals with mnb-overexpressing Drosophila. The data set is described as follows: Adult lethality with pan-neuronal mnb overexpression. It is filed as in vivo, Drosophila melanogaster. Particulars: parent flies fed 100 nM, n=100 per group. An excerpt:
The expression of human Tau in Drosophila retinal tissue (GMR>Tau) produced a small rough eye phenotype (GMR>Tau in Fig. 6A and B), as described previously ([Jackson et al., 2002]). […] Pan-neuronal mnb overexpression (elav::synGFP>mnb) caused severe neurogenic defects in both the central and peripheral nervous system during embryogenesis [elav::synGFP>mnb (DMSO) in Fig. 6C]. […] Moreover, the viability of adult flies with the neuronal overexpression of mnb was examined. Pan-neuronal overexpression of mnb caused high rates of mortality in adult flies (∼70%, Fig. 6D).
Fig. 6. CX-4945 rescues neurological and phenotypic defects in an mnb-overexpressing Drosophila model. (A) The eyes of adult flies overexpressing mnb and/or human Tau under the control of the eye-specific GMR-Gal4 driver, and of control flies bearing only GMR-Gal4. Overexpression of mnb aggravated the eye abnormality induced by Tau overexpression. […] White dashed lines outline the eye contour. (B) The retinal surface areas were measured on multiple samples (n>10) from each genotype, and average eye sizes were presented as normalized percentages of the DMSO-treated GMR-Gal4 control. (C) The brain cortex, primary neuronal cell clusters and axon bundle, as visualized with GFP (green) using UAS-Synaptobrevin-GFP driven by elav-Gal4 at the late embryonic stage 18. […]

For data set [3], the system named is DYRK1A. The data set is described as follows: Tau phosphorylation (T212) in the hippocampus of DYRK1A transgenic mouse after oral administration. It counts as in vivo. Here is the method: This mouse model has 50% higher expression of DYRK1A compared with a normal mouse, and increased Tau phosphorylation at T212 in the hippocampus has been well documented ([Ryoo et al., 2007]). Indeed, this phenomenon was also confirmed in our experiment.
Fig. 7. […] (A) Hippocampuses from normal and DYRK1A-overexpressing C57BL/6 mice (n=5 for each) were harvested, and the phosphorylation of Tau was analyzed by western blotting with anti-phosphorylated-Tau (at residue T212; p-Tau) and anti-Tau antibodies. α-Tubulin was also analyzed as a loading control. (B) The phosphorylated and total Tau proteins in panel A were quantified, and the mean amount of each protein was calculated. […] Total cell lysates were prepared and subjected to western blotting with the indicated antibodies. α-Tubulin was also analyzed as a loading control. (D) The phosphorylated and total Tau proteins in panel C were quantified, and the mean amount of each protein across the animals was calculated. Relative ratios of phosphorylated Tau to total Tau were calculated by setting the value from DYRK1A mice that had been treated with DMSO as 100%. […]
DYRK1A transgenic mice with three copies of the human DYRK1A gene were maintained as described previously ([Ahn et al., 2006]). […] The protein concentration was determined using the Bradford protein assay (Bio-Rad). […]

For data set [4], the target named is T1, DYRK1A (Homo sapiens, UniProt Q13627). The experiment in a line: DYRK1A kinase activity at various ATP and CX-4945 concentrations (Lineweaver-Burk). It is filed as biochemical. On the set-up: purchased Life Technologies (Kinase Profiler service). As to conditions: ATP 50, 75, 100, 150 and 200 μM; Lineweaver-Burk plots. The procedure:
Fig. 2. […] Data are mean±s.d. […] Hydrogen bonds are denoted as dotted black lines, and oxygen, nitrogen and chlorine atoms are indicated as red, blue and green sticks, respectively.
Kinase assays were conducted using the Kinase Profiler services offered by Life Technologies, which utilizes a fluorescence-based immunoassay. Detailed protocols can be found at http://www.lifetechnologies.com/kinaseprofiling. […] All experiments were performed twice.

Data set [5] concerns the target T1, DYRK1A. The data set is described as follows: DYRK1A-mediated Tau (T212) phosphorylation in transfected 293T cells, western blot. On the set-up: expressed in transfected cells; host or cells: 293T cells. It counts as cell-based. Background: A western blot detects proteins with antibodies after separation by electrophoresis.

With `O=C(O)c1ccc2c(c1)nc(Nc1cccc(Cl)c1)c1ccncc12` [CX-4945], in data set [1], the “nuclear translocation of Flag-NFATc1” value was “effectively induced the nuclear translocation”. In addition, the “reduction of mortality of the progeny” value in data set [2] is reported as “more than 70%”. For the same compound, the “phosphorylation of Tau (T212) in hippocampus” value in the data set with DYRK1A [3] (DYRK1A-overexpressing C57BL/6 mice, 75 mg/kg oral, 30 min) is recorded as “remarkably decreased”. Further, the blood-brain barrier penetration result in the data set with DYRK1A [3] (inferred from hippocampal Tau phosphorylation after oral 75 mg/kg) is reported as “efficiently penetrates the blood-brain barrier”. Moreover, at DYRK1A [4], the “mode of DYRK1A inhibition” value is “ATP-competitive manner”. Moreover, the “inhibition of Tau phosphorylation at 0.1 μM” value on DYRK1A [5] (0.1 μM) is recorded as “Moderate inhibition”. The “inhibition of Tau phosphorylation at 1 μM” value at DYRK1A [5] (1 μM) is on record as “almost complete inhibition”.
